# Measurements as given in PMC3129627 (Organic letters, 2011).
# Legend:
# [1] = target: acetyl cholinesterase (AChE) from the housefly (CSMA strain); details: natural product; cited from earlier work
# human AChE = human AChE (Homo sapiens, UniProt P22303); assay: Inhibition of human AChE, modified Ellman assay; type: biochemical; details: racemic (±) synthetic compounds
# [2] = target: acetyl cholinesterase (AChE) from the brown plant hopper; details: natural product; cited from earlier work
# human AChE, sequence (P22303 32-614): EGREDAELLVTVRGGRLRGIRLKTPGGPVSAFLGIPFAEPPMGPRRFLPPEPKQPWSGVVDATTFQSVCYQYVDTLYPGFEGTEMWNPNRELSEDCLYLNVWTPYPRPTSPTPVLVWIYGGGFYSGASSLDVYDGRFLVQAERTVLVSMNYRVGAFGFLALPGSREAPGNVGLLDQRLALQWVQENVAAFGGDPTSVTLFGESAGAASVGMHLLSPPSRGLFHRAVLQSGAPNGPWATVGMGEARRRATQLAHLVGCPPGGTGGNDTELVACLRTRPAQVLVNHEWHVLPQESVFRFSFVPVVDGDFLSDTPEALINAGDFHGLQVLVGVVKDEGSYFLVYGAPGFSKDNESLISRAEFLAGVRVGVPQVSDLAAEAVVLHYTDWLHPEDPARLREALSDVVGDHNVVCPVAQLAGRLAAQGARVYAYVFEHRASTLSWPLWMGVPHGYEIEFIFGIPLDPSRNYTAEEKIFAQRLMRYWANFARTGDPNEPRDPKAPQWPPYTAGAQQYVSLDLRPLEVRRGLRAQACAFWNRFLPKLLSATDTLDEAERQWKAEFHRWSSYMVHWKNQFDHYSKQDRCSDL
structure (smiles),measurement,setting,value
"CO[P@]1(=O)OC[C@H]2COC(=O)C2=C(C)O1 [compound 1, Cyclophostin]",IC50,[1],0.76 nM
same,IC50,human AChE,~40 nM
same,IC50,[2],0.76 nM
